As a reminder, the inhibition is the share of the control response that was lost under treatment.

In the assay the target is T1, human JAK3 (Homo sapiens, UniProt P52333).
T1 construct: His (N); purchased Carna Bioscience Inc. (Kobe, Japan); host or cells: baculovirus expression system
Nature of the assay: Determination of Janus Kinase 3 (JAK3) inhibitory activity. It is filed as biochemical. The note with it: read-out: IR (JAK3 inhibition rate); for inhibition at 10 µM: test compound 10^−5M; for inhibition at 0.01 µM: test compound 10^−8M. As for the experimental part: Test 1: Determination of Janus Kinase 3 (JAK3) Inhibitory Activity
The assay for JAK3 activity was performed basically according to the method as proposed by Okimoto et al, as follows.
Purified kinase domain (KD) of human JAK3 was purchased from Carna Bioscience Inc. (Kobe, Japan). 796-1124 (end) amino acids of human JAK3 [accession number #NM_000215] was expressed as N-terminal His-tagged protein (41 kDa) using the baculovirus expression system and purified by using Ni-NTA affinity chromatography.
Biotin-Lyn-Substrate-peptide and ATP were used as substrates. Assay buffer consisted of 15 mM Tris-HCl pH7.5, 0.01% Tween 20 and 2 mM DTT. For the standard assay, 20 μL of substrate solution (Assay buffer containing 627 nM Biotin-Lyn-Substrate-2, 20 μM ATP and 25 mM MgCl2), 10 μL of assay buffer containing test compound and 20 μL of enzyme solution were added to the plate and mixed well.
After 1 hour incubation at ambient temperature, the plate was washed 4 times with wash buffer (50 mM Tris-HCl pH 7.5, 150 mM NaCl, 0.02% Tween 20), and then blocking buffer (wash buffer containing 0.1% Bovine serum albumin) was added to the plate. After 30 minutes incubation at ambient temperature, blocking buffer was removed and HRP-PY-20 solution (HRP-PY-20 500 times diluted with blocking buffer) was added. After 30 minutes incubation at ambient temperature, the plate was washed 4 times and TMB substrate solution (Sigma) was added to the plate. After 4 minutes incubation at ambient temperature, 1 M H2SO4 was added to the plate to stop the reaction. Enzyme activity was measured as optical density at 450 nm.

Bounds are passed on as bounds.

T1 sequence (P52333 796-1124): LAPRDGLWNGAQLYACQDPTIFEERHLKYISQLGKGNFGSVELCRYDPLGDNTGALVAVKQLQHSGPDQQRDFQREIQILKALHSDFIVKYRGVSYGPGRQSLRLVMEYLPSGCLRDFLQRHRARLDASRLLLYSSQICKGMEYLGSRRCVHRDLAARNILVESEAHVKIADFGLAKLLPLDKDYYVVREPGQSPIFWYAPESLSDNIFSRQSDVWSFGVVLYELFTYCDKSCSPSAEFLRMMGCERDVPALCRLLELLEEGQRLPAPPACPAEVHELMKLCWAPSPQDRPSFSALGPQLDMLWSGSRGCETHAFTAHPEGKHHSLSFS

With `CN(c1ccnc2[nH]ccc12)C1CCCCC1` [Example 211, N-cyclohexyl-N-methyl-1H-pyrrolo[2,3-b]pyridin-4-amine], the inhibition at 10 µM was > 50%. Take `CN(c1c(C(N)=O)cnc2[nH]ccc12)C1CCCCC1` [Example 4, 4-[Cyclohexyl(methyl)amino]-1H-pyrrolo[2,3-b]pyridine-5-carboxamide]: the inhibition at 10 µM is > 50%. Consider `CN(c1ccnc2[nH]cc(C#N)c12)C1CCCCC1` [Example 212, 4-[cyclohexyl(methyl)amino]-1H-pyrrolo[2,3-b]pyridine-3-carbonitrile], for which the inhibition at 10 µM is > 50%.

Consider `CC1CCN(c2ccc(C#N)nn2)CC1n1c(=O)[nH]c2cnc3[nH]ccc3c21` (stereo not drawn) [Example 244, 6-[4-Methyl-3-(2-oxo-3,6-dihydroimidazo[4,5-d]pyrrolo[2,3-b]-pyridin-1(2H)-yl)-1-piperidinyl]-3-pyridazinecarbonitrile], for which the inhibition at 0.01 µM is > 50%. The same measure, in the same setting: the figure for `C[C@@H]1CCN(C(=O)CC#N)C[C@@H]1n1c(=O)[nH]c2cnc3[nH]ccc3c21` (relative stereo) [Example 189, rel-3-[(3R,4R)-4-Methyl-3-(2-oxo-3,6-dihydroimidazo[4,5-d]pyrrolo-[2,3-b]pyridin-1(2H)-yl)-1-piperidinyl]-3-oxopropanenitrile] is > 50%. With `C[C@@H]1CCCC[C@@H]1Nc1c(C#N)cnc2[nH]ccc12` [Example 15, 4-{[(1S,2R)-2-Methylcyclohexyl]amino}-1H-pyrrolo[2,3-b]-pyridine-5-carbonitrile], the inhibition at 10 µM is > 50%. As for `C[C@@H]1CCN(c2ccc(C#N)cn2)C[C@@H]1n1c(=O)[nH]c2cnc3[nH]ccc3c21` (relative stereo) [Example 323, rel-6-[(3R,4R)-4-Methyl-3-(2-oxo-3,6-dihydroimidazo[4,5-d]-pyrrolo[2,3-b]pyridin-1(2H)-yl)piperidin-1-yl]nicotinonitrile], the inhibition at 0.01 µM was > 50%. `C[C@@H]1CCCC[C@@H]1N(C)c1ccnc2[nH]cnc12` [Example 156, N-Methyl-N-[(1S,2R)-2-methylcyclohexyl]-3H-imidazo[4,5-b]-pyridin-7-amine]: the inhibition at 10 µM is > 50%. With `C[C@@H]1CCCC[C@@H]1n1c(=O)[nH]c2cnc3[nH]cc(Br)c3c21` [Example 324, 8-bromo-1-[(1S,2R)-2-methylcyclohexyl]-3,6-dihydroimidazo[4,5-d]pyrrolo[2,3-b]pyridin-2(1H)-one], the inhibition at 0.01 µM is > 50%.

Values taken from US8163767B2, “Heterocyclic Janus Kinase 3 inhibitors” (Astellas Pharma Inc., priority 2005, dated 2012).
